pKi: −log10 of the molar value.
What follows are compounds tested on Glutamate NMDA receptor (assay: Displacement of [3H]MK801 from NMDA receptor in rat brain neuronal membrane). Settings: not given; call rule not given here.
Assay type: cell membranes
With `COc1ccc2c(c1)C13CCCC[C@@H]1C(C2)NCC3` (single isomer, unassigned) the Ki was “Not Active”.

Same assay, conditions: read-out: Ki
`NCC(c1ccccc1)c1ccccc1` was tested, and the pKi was 3.84. Compound `COc1ccc2c(c1)[C@]13CCCC[C@@H]1[C@H](C2)NCC3` has a pKi of 5.77. `C[C@@H](N)c1ccccc1` gave a pKi of 3.18. Work on `C[C@H](N)c1ccccc1` yielded a pKi of 3.21. `N[C@H](c1ccccc1)[C@H](N)c1ccccc1` gave a pKi of 5.39. With `N[C@@H](c1ccccc1)[C@H](O)c1ccccc1` the pKi was 3.85. Work on `N[C@H](CC1CCCCC1)C1CCCCC1` yielded a pKi of 3.86. Compound `C[C@](N)(Cc1ccccc1)c1ccccc1` has a pKi of 6.10. With `N[C@@H](Cc1ccccc1)c1ccccc1` the pKi was 6.15. `C[C@@](N)(Cc1ccccc1)c1ccccc1` was tested, and the pKi was 5.09. `N[C@H](c1ccccc1)[C@@H](O)c1ccccc1` was tested, and the pKi was 4.80. Compound `c1ccc(C[C@H](c2ccccc2)N2CCCCC2)cc1` has a pKi of 5.28. `N[C@H](Cc1ccccn1)c1ccccc1` was tested, and the pKi was 4.08. In the case of `c1ccc(C[C@@H](c2ccccc2)N2CCCCC2)cc1`, the pKi was 6.92. In the case of `N[C@]1(c2ccccc2Cl)CCCCC1=O`, the pKi was 5.38. `N[C@H](Cc1ccccc1)c1ccccc1` gave a pKi of 4.60. Compound `N[C@@H](c1ccccc1)[C@@H](N)c1ccccc1` has a pKi of 4.29. Work on `N[C@@]1(c2ccccc2Cl)CCCCC1=O` yielded a pKi of 4.26. In the case of `CN[C@@]1(c2ccccc2Cl)CCCCC1=O`, the pKi was 5.25. `COC(=O)[C@@H](N)c1ccccc1` showed a pKi of 2.70. `COC(=O)[C@H](N)c1ccccc1` gave a pKi of 2.86. With `N[C@@H](CC1CCCCC1)C1CCCCC1` the pKi was 3.57. `N[C@H]1C[C@@H]1c1ccccc1` [(+)-TRANYLCYPROMINE] gave a pKi of 3.57. With `NC(c1ccccc1)c1ccccc1` [AMINODIPHENYLMETHANE] the pKi was 4.19. `NCc1ccccc1` [BENZYLAMINE] showed a pKi of 2.97. For `C[C@H](N)Cc1ccccc1` [DEXTROAMPHETAMINE], the pKi was 3.52. For `CN[C@]1(c2ccccc2Cl)CCCCC1=O` [ESKETAMINE], the pKi was 6.02. `N[C@@H](Cc1ccccn1)c1ccccc1` [LANICEMINE] gave a pKi of 4.85. Work on `C[C@@H](N)Cc1ccccc1` [LEVAMFETAMINE] yielded a pKi of 3.20. `c1ccc(C2(N3CCCCC3)CCCCC2)cc1` [PHENCYCLIDINE] was tested, and the pKi was 6.57. `NCCc1ccccc1` [PHENETHYLAMINE] gave a pKi of 3.12. Compound `N[C@@H]1C[C@H]1c1ccccc1.N[C@H]1C[C@@H]1c1ccccc1` [TRANYLCYPROMINE] has a pKi of 3.26.
